Laboratory results published in the Kinase Knowledgebase extract (Sharma et al. 2016).
pIC50: −log10 of the molar value.

Columns and labels:
EGFR (human) [1] = molecular target: EGFR (human) (UniProt P00533); conditions: uacc-257
EGFR (human) [2] = molecular target: EGFR (human) (UniProt P00533); conditions: mda-n
EGFR (human) [3] = molecular target: EGFR (human) (UniProt P00533); conditions: hop-92
EGFR (human) [4] = molecular target: EGFR (human) (UniProt P00533); conditions: malme-3m
EGFR (human) [5] = molecular target: EGFR (human) (UniProt P00533); conditions: h226
EGFR (human) [6] = molecular target: EGFR (human) (UniProt P00533); conditions: tk-10
EGFR (human) [7] = molecular target: EGFR (human) (UniProt P00533); conditions: h322m
EGFR (human) [8] = molecular target: EGFR (human) (UniProt P00533); conditions: lox-imvi
EGFR (human) [9] = molecular target: EGFR (human) (UniProt P00533); conditions: hl60tb
EGFR (human) [10] = molecular target: EGFR (human) (UniProt P00533); conditions: sk-ov-3
EGFR (human) [11] = molecular target: EGFR (human) (UniProt P00533); conditions: uo-31
EGFR (human) [12] = molecular target: EGFR (human) (UniProt P00533); conditions: siha
EGFR (human) [13] = molecular target: EGFR (human) (UniProt P00533); conditions: ovcar-8
EGFR (human) [14] = molecular target: EGFR (human) (UniProt P00533); conditions: a549
EGFR (human) [15] = molecular target: EGFR (human) (UniProt P00533); conditions: sf-295
EGFR (human) [16] = molecular target: EGFR (human) (UniProt P00533); conditions: u251

EGFR (human), sequence (P00533 whole entry, looked up): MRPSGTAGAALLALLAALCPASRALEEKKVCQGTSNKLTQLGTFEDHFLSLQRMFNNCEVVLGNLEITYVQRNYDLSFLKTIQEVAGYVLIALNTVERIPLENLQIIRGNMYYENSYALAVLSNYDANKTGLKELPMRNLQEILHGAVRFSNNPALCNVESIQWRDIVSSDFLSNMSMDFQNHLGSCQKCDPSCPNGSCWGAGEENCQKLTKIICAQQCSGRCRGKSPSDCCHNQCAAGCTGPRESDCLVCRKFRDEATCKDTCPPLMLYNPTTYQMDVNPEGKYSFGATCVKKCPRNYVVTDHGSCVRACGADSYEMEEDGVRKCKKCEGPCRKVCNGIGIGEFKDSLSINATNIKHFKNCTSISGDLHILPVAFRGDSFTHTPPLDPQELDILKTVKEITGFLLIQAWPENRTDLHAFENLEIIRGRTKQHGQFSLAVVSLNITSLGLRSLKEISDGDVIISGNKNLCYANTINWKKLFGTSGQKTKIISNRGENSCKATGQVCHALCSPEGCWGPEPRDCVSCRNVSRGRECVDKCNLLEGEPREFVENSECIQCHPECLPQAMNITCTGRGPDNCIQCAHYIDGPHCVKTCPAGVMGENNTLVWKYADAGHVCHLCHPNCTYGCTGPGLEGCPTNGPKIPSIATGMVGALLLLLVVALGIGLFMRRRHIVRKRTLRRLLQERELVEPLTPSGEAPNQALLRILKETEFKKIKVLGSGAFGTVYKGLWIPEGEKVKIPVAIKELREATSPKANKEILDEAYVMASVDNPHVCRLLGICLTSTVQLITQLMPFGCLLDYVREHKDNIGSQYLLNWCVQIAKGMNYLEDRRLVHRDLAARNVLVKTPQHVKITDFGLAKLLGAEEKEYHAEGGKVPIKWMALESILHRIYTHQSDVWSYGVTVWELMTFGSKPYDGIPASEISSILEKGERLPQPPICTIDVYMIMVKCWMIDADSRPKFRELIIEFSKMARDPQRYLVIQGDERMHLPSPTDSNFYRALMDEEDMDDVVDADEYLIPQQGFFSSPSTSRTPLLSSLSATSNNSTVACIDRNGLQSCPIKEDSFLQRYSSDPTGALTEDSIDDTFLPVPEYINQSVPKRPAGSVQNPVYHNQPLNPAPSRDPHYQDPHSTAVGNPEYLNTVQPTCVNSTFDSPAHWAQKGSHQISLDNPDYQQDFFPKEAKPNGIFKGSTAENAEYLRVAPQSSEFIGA

Row | SMILES | GI50 (EGFR (human) [1]) | GI50 (EGFR (human) [2]) | GI50 (EGFR (human) [3]) | GI50 (EGFR (human) [4]) | GI50 (EGFR (human) [5]) | GI50 (EGFR (human) [6]) | GI50 (EGFR (human) [7]) | GI50 (EGFR (human) [8]) | GI50 (EGFR (human) [9]) | GI50 (EGFR (human) [10]) | GI50 (EGFR (human) [11]) | pIC50 (EGFR (human) [12]) | GI50 (EGFR (human) [13]) | GI50 (EGFR (human) [14]) | GI50 (EGFR (human) [15]) | GI50 (EGFR (human) [16])
1 | N#CC(C#N)=Cc1csc([N+](=O)[O-])c1 | 19 µM | 19.9 µM | 30.9 µM | 33.9 µM | > 100 µM | 45.7 µM | 74.1 µM | 30.9 µM | 42.6 µM | 59 µM | 15.1 µM | 4.35 | 19.5 µM | > 100 µM | – | –
2 | N#CC(C#N)=C(N)/C(C#N)=C/c1ccc([N+](=O)[O-])s1 | 10.5 µM | 4.57 µM | – | 22.9 µM | 17.8 µM | 18.2 µM | 20.9 µM | 11.5 µM | – | 17.8 µM | 14.8 µM | 4.87 | 12.6 µM | – | 17.4 µM | 18.6 µM
3 | CCOC(=O)/C(C#N)=C/c1ccc([N+](=O)[O-])s1 | 2.09 µM | 2.19 µM | 11.5 µM | 2.24 µM | 16.2 µM | 3.47 µM | 17 µM | 1.86 µM | 0.28 µM | 15.5 µM | 10.7 µM | 5.34 | 1.99 µM | 15.5 µM | 2.09 µM | 13.5 µM
